Structures can show the parent of a compound that is named as a salt.
How the values were obtained:
[1] = molecular target: T1, UGT1A1 (Homo sapiens, UniProt P22309); assay: UGT inhibition assay, UGT1A1; assay type: in vitro ADME
T1 sequence (P22309 26-533): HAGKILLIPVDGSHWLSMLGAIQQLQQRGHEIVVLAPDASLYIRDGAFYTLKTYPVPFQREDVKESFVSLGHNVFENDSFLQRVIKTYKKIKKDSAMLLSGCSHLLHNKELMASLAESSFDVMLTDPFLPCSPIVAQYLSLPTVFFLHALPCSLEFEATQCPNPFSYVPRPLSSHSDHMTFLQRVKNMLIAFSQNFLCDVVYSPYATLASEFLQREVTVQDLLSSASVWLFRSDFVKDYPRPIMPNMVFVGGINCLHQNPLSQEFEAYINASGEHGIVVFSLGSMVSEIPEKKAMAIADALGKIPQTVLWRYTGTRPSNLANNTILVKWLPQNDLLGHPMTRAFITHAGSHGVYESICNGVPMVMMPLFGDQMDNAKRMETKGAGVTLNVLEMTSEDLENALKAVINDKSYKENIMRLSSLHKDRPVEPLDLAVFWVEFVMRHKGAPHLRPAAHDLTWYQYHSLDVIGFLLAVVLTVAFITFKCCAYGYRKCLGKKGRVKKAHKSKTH
Description: 2R,6R-hydroxynorketamine was therefore investigated for its potential to inhibit this isozyme, along with that of the major UGT isozyme, UGT1A1, using a UGT inhibition assay.

[2] = in vitro; settings: human
[3] = tested on: plasma binding proteins; settings: background statement on SSRIs; cited from earlier work
[4] = molecular target: UGT2B7 (Homo sapiens, UniProt P16662); assay: UGT inhibition assay, UGT2B7; assay type: in vitro ADME
Chain of UGT2B7 (P16662 24-529): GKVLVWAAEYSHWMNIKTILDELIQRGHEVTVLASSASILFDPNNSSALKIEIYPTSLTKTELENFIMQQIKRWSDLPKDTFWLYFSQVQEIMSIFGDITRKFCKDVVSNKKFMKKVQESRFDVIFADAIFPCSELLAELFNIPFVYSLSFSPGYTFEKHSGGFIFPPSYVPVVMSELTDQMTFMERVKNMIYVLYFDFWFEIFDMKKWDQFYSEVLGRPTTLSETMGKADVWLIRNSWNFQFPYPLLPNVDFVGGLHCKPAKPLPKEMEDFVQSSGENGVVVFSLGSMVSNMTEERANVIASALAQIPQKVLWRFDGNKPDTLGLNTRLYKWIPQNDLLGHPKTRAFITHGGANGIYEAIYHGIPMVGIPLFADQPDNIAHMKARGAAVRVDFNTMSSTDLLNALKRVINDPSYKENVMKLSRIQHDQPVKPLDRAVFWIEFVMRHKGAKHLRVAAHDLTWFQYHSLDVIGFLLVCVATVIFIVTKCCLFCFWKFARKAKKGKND

COC(=O)N[C@H](C(=O)N[C@@H](Cc1ccccc1)[C@@H](O)CN(Cc1ccc(-c2ccccn2)cc1)NC(=O)[C@@H](NC(=O)OC)C(C)(C)C)C(C)(C)C [Atazanavir]
IC50 [1]: 0.153 µM

CC(C)NCC(O)COc1cccc2ccccc12 (centres unmarked) [propranolol, reference compound]
recovery ([2]; Caco-2, Direction = A2B Mean % Recovery, Caco-2, A2B): 71.1%
Papp A→B ([2]; Caco-2, Direction = A2B Mean Papp, Caco-2, A2B, mean, n 2): 26.7 ×10⁻⁶ cm/s
Papp A→B ([2]; Caco-2, Direction = A2B Papp Replicate 1, Caco-2, A2B, replicate 1): 26 ×10⁻⁶ cm/s
Papp A→B ([2]; Caco-2, Direction = A2B Papp Replicate 2, Caco-2, A2B, replicate 2): 27.4 ×10⁻⁶ cm/s
recovery ([2]; Caco-2, Direction = B2A Mean % Recovery, Caco-2, B2A): 82.8%
Papp B→A ([2]; Caco-2, Direction = B2A Papp Replicate 2, Caco-2, B2A, replicate 2): 26.2 ×10⁻⁶ cm/s

CNCCC(Oc1ccc(C(F)(F)F)cc1)c1ccccc1 (centres unmarked) [fluoxetine]
protein bound [3]: 94%

N[C@@]1(c2ccccc2Cl)CCC[C@@H](O)C1=O [2R-6R-Hydroxynorketamine Hydrochloride, 2R,6R-hydroxynorketamine hydrochloride]
IC50 [1]: > 100 µM
IC50 [4]: > 100 µM

Fc1ccc([C@@H]2CCNC[C@H]2COc2ccc3c(c2)OCO3)cc1 [paroxetine]
protein bound [3]: 95%
